Data on one compound can be found in ChEMBL document CHEMBL5715956, “Selective Targeting of Bromodomains of the Bromodomain-PHD Fingers Family Impairs Osteoclast Differentiation” (ACS Chem Biol, 2017).

By ΔTm is commonly meant the shift of the melting midpoint relative to a reference. In general, inhibition refers to the change of the read-out against control, counted positive when it falls.

In assay [1] the target is T1, Peregrin (Homo sapiens) (UniProt P55201).
T1 sequence (whole entry): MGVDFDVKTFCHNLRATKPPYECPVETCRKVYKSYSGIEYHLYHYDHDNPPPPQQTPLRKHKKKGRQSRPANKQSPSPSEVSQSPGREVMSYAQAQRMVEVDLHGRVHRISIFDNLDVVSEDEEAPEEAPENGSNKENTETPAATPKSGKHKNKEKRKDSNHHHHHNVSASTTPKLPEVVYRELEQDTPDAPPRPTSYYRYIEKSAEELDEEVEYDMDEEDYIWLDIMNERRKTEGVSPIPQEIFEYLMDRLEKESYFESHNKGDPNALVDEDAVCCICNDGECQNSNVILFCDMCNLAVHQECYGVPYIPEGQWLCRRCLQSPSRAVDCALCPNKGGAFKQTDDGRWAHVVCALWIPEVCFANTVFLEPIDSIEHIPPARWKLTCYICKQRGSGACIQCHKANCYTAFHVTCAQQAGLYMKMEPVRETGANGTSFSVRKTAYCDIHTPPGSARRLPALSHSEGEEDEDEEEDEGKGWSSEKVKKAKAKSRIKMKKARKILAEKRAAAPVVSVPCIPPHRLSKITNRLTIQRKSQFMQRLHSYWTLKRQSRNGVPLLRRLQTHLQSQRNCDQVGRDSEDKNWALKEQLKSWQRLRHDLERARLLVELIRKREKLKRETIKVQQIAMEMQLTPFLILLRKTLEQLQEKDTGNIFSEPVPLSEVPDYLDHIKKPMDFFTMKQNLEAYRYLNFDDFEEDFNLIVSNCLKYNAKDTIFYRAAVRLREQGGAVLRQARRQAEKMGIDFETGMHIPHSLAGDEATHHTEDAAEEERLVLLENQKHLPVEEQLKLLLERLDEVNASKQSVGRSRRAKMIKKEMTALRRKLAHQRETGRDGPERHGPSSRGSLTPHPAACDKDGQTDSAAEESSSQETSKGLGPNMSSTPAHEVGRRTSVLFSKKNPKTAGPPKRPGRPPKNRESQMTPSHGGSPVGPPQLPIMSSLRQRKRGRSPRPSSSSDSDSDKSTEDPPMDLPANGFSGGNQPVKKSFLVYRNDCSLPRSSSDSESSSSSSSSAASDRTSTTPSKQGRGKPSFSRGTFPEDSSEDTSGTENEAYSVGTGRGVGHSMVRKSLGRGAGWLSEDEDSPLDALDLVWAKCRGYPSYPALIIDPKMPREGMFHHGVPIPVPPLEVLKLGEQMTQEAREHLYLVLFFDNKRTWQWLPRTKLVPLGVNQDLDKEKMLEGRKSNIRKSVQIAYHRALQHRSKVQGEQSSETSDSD
Description: Binding affinity to […] (unknown origin) assessed as change in enthalpy at 17 uM by Isothermal titration calorimetry. Background: Isothermal titration calorimetry measures the heat released or taken up as one component is titrated into another.

Assay [2] deals with ATPase family AAA domain-containing protein 2B (Homo sapiens) (UniProt Q9ULI0). The following applies: dose 10.0 µM.
ATPase family AAA domain-containing protein 2B (Homo sapiens), sequence (Q9ULI0 whole entry, the tested form may be a part): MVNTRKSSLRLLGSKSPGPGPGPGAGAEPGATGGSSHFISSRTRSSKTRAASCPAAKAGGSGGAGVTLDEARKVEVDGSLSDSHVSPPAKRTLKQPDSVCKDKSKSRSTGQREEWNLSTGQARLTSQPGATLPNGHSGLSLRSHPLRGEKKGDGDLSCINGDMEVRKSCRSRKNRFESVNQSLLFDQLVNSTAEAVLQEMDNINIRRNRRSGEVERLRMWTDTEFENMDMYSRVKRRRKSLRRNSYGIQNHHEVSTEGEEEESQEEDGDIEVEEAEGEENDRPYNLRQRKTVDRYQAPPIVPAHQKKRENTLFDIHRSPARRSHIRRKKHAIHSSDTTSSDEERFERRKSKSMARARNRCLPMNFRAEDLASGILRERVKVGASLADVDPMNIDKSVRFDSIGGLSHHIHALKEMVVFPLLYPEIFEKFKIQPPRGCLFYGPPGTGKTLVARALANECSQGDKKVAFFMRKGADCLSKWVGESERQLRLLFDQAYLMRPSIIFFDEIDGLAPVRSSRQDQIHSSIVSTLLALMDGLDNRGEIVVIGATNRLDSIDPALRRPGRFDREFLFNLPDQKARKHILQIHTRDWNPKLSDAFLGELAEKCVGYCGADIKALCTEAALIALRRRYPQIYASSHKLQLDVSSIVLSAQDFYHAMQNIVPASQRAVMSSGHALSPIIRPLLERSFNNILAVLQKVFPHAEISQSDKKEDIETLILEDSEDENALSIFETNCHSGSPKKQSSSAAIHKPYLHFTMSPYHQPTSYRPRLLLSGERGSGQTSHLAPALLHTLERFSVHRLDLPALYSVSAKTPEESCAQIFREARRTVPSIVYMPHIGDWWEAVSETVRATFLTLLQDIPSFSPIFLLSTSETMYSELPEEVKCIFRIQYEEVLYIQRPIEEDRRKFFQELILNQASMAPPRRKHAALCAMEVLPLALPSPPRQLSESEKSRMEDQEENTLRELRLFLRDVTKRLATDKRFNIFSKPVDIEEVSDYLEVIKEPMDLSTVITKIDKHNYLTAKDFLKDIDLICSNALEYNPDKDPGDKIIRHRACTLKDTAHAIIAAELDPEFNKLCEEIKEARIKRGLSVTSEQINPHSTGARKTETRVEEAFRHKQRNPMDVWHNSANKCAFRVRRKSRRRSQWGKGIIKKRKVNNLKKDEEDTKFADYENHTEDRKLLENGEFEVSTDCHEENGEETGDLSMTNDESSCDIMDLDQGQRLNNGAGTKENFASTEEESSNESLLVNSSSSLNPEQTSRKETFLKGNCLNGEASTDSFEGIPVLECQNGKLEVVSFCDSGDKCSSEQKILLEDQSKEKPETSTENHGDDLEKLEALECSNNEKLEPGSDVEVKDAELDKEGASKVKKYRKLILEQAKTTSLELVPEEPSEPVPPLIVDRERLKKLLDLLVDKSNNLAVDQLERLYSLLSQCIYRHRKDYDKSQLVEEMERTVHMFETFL
Assay [3] addresses Bromodomain and WD repeat-containing protein 1 (Homo sapiens) (UniProt Q9NSI6). The following applies: dose 10.0 µM.
Assay [4] addresses T1, Peregrin (Homo sapiens). Description: Binding affinity to […] (unknown origin) assessed as change in entropy TdeltaS at 17 uM by Isothermal titration calorimetry.
For assay [5], the target named is T2, Bromodomain-containing protein 1 (Homo sapiens) (UniProt O95696).
T2 sequence (whole entry): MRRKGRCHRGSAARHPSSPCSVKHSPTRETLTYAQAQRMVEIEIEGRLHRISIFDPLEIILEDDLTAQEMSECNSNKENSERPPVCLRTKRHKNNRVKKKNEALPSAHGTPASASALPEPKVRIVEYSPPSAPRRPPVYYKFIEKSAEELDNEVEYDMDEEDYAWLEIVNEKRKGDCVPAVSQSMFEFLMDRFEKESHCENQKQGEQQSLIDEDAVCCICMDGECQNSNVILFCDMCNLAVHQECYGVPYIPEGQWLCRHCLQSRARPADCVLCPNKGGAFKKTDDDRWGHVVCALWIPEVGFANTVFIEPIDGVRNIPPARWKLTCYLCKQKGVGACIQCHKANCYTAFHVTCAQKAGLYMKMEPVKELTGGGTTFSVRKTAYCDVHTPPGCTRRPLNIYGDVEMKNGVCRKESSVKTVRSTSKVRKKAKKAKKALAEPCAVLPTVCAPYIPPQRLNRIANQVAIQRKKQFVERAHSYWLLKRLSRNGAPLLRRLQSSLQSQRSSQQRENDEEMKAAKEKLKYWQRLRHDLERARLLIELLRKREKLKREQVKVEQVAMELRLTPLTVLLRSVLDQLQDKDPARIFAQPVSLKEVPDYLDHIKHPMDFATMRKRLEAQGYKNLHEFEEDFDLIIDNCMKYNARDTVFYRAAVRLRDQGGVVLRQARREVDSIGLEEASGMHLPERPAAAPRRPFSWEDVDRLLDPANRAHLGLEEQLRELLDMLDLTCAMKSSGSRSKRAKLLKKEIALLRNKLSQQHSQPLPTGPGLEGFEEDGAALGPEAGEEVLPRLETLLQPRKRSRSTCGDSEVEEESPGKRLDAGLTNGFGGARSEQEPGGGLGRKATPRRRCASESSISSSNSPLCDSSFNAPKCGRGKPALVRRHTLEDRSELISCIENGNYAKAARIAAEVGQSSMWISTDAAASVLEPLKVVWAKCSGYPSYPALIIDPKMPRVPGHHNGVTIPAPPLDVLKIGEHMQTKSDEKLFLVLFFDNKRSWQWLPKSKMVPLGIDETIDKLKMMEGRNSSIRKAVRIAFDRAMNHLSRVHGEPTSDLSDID
The assay is described as follows: Binding affinity to BRPF2 (unknown origin) assessed as change in enthalpy at 12 uM by Isothermal titration calorimetry.

The target of assay [6] is 5-hydroxytryptamine receptor 5A (Homo sapiens) (UniProt P47898). The assay is described as follows: Inhibition of 5HT5A (unknown origin) at 10 uM relative to control.
The target in assay [7] is T2, Bromodomain-containing protein 1 (Homo sapiens). Description: Binding affinity to BRPF2 (unknown origin) assessed as association constant at 12 uM by Isothermal titration calorimetry.
The target in assay [8] is Beta-2 adrenergic receptor (Homo sapiens) (UniProt P07550). The assay is described as follows: Binding affinity to Beta2 (unknown origin) assessed as specific binding at 10 uM relative to control.
Assay [9] deals with Protein polybromo-1 (Homo sapiens) (UniProt Q86U86). As to conditions: dose 10.0 µM; call rule not given here.
Protein polybromo-1 (Homo sapiens), sequence (Q86U86 whole entry): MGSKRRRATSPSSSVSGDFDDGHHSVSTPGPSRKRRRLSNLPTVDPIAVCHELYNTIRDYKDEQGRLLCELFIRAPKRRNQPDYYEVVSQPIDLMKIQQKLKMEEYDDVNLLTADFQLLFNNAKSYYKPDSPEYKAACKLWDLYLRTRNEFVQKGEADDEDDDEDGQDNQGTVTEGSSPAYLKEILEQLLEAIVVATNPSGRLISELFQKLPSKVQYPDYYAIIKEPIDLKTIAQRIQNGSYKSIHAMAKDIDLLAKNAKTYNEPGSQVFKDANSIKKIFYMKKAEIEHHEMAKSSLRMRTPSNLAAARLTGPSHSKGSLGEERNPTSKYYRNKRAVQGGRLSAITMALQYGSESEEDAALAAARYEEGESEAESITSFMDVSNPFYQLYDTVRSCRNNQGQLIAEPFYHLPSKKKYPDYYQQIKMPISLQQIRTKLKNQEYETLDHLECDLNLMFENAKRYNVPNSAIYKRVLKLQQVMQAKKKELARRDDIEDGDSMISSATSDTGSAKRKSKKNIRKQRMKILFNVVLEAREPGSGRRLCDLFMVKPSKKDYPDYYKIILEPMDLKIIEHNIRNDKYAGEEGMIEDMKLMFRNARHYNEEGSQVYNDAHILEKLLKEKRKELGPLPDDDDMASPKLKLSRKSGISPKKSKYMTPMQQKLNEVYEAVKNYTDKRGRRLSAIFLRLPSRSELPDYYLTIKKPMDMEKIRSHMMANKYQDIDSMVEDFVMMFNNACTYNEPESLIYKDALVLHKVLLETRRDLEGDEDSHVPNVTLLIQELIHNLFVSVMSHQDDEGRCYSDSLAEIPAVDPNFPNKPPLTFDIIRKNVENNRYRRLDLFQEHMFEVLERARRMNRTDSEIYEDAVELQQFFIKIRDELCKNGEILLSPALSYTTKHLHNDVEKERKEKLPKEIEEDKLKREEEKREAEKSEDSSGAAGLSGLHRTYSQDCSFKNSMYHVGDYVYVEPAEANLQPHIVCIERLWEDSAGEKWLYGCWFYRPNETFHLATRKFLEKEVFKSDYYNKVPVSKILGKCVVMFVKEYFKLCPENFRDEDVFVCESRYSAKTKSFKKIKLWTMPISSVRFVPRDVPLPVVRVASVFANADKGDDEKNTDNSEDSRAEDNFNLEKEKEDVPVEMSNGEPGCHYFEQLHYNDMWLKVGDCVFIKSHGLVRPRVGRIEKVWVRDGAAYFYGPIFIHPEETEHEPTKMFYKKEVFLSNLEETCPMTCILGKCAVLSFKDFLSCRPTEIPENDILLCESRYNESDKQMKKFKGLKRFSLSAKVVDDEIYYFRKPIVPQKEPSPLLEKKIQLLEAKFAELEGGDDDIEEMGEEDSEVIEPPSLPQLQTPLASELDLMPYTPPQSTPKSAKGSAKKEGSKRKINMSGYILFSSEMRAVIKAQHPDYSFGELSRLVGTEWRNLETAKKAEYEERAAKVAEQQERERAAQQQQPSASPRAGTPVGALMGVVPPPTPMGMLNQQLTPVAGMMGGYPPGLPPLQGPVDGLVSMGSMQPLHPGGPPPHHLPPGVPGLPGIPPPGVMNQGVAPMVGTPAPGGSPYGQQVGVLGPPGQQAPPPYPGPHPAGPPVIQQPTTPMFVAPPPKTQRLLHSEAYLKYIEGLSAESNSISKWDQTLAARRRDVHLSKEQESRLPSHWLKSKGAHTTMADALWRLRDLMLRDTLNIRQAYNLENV
The target of assay [10] is Bromodomain and PHD finger-containing protein 3 (Homo sapiens, UniProt Q9ULD4). Description: Inhibition of BRPF3 (unknown origin) incubated for 60 mins by alphascreen competitive assay.
Bromodomain and PHD finger-containing protein 3, sequence (Q9ULD4 whole entry): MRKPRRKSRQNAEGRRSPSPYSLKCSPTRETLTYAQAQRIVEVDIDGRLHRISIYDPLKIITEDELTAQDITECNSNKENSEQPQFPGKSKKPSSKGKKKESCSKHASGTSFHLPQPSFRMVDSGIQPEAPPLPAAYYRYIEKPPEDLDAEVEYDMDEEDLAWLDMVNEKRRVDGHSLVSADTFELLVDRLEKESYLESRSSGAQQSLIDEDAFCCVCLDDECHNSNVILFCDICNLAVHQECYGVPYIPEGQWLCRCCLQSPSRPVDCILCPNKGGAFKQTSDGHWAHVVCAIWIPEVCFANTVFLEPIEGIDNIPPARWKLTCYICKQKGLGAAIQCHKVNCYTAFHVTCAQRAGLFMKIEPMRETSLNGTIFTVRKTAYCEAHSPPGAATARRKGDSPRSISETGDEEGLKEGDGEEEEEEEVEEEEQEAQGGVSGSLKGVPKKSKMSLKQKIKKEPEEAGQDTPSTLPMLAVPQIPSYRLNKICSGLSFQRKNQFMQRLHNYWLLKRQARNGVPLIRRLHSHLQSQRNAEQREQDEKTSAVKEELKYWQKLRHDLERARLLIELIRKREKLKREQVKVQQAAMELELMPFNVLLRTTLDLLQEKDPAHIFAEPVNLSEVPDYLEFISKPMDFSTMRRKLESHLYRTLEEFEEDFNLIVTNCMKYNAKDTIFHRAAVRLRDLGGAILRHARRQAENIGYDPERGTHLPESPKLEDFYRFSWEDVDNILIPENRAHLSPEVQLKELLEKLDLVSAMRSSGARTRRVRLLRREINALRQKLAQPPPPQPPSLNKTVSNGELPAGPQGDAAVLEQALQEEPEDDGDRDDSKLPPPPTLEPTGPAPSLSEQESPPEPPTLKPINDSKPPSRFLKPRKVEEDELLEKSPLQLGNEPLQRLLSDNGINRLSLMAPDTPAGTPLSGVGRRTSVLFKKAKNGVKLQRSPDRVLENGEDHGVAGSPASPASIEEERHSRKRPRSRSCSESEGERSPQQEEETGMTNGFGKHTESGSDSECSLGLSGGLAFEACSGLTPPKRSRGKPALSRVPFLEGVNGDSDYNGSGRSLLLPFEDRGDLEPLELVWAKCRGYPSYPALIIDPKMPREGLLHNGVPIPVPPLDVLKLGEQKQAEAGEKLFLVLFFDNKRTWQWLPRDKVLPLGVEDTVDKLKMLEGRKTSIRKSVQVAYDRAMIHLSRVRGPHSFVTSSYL
In assay [11] the target is Bromodomain-containing protein 9 (Homo sapiens) (UniProt Q9H8M2). The following applies: dose 10.0 µM.
Bromodomain-containing protein 9 (Homo sapiens), sequence (Q9H8M2 whole entry): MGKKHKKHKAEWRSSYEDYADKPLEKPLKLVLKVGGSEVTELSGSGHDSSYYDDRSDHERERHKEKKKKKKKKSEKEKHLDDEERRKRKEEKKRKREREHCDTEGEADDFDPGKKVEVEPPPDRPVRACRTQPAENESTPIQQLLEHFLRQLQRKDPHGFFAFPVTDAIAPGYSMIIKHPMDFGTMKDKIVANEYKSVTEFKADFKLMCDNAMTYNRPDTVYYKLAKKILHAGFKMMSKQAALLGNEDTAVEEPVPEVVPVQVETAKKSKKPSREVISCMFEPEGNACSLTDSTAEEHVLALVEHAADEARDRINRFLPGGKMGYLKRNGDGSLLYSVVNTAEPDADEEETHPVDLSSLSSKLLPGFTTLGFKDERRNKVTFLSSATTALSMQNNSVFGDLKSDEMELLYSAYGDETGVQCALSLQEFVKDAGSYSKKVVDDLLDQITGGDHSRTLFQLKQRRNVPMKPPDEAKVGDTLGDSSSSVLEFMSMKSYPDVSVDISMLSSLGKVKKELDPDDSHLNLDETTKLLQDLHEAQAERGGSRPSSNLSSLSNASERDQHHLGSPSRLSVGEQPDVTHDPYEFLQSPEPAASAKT
For assay [12], the target named is Protein polybromo-1 (Homo sapiens) (UniProt Q86U86). The following applies: dose 10.0 µM. The source holds these as a separate data set.
Assay [13] addresses T2, Bromodomain-containing protein 1 (Homo sapiens). The following applies: dose 10.0 µM.

`COc1cc2c(cc1NS(=O)(=O)c1ccc(Br)cc1C)n(C)c(=O)n2C`: the deltaH at Peregrin (Homo sapiens) [1] is -12.6 kcal/mol; in [5], -9.5 kcal/mol. The ΔTm in assay [2] was -0.3 °C; in assay [3], 1 °C; in [9] it was 0.2 °C; in assay [11], 1 °C; in assay [12], 0.2 °C; in assay [13], 3.1 °C. The TdeltaS on Peregrin (Homo sapiens) [4] is -3.34 kcal/mol. Besides, in assay [6], the inhibition is 22%. In addition, the Ka in assay [7] is 1.98 10^6 M^-1. For the same compound, in [8], the Activity was 93.6%. For the same compound, the IC50 entry in assay [10] is recorded as “Not Active”.
